What was measured:
[1] = tested on: HDACs (HeLa cell nuclear extracts); experiment: HDAC enzymatic activity, Biomol Color de Lys system; assay type: biochemical; conditions: 1 hour, 25° C.
How it was run: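 HeLa nuclear extract incubated with serially diluted compound and […] artificial substrate in 50 mM Tris/Cl pH 8.0, 137 mM NaCl, 2.7 mM KCl, 1 mM MgCl2. Run 1 h at 25 °C, stopped with developer. Fluorescence read (ex 350-380, em 440-460 nm); IC50 from sigmoidal dose-response fit.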

PI3Kα (p110α/p85α) = biological target: T1, PI3Kα (p110α/p85α) (Homo sapiens, UniProt P42336); experiment: PI3Kα ADP-Glo assay; assay type: biochemical; conditions: 20 μM PIP2, 10 μM ATP, 30 minutes
T1 construct: GST (N); made in house; host or cells: Baculovirus-infected Sf9 cells
How it was run: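 Recombinant full-length human GST-p110α/His-p85α, co-expressed in Sf9 cells, was incubated 30 min at room temperature with 20 μM PIP2 and 10 μM ATP. The buffer was 50 mM HEPES pH 7.4, 150 mM NaCl, 5 mM MgCl2, 1 mM DTT, 3 µM orthovanadate and 0.5% DMSO. ADP formed was detected by ADP-Glo luminescence.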

[2] = biological target: T2, mTor serine/threonine protein kinase (Homo sapiens, UniProt P42345); experiment: mTor kinase radioisotope assay; assay type: biochemical; conditions: 70 uM ATP, 40 minutes; read-out: m-TOR IC50
T2 construct: FLAG; made in house; host or cells: Baculovirus expression system in Sf21 cells
Experimental: (F) an In Vitro Assay which-Determines the Ability of a Test Compound to Inhibit mTor Serine/Threonine Protein Kinase.
The ability of compounds to inhibit mTor activity was assayed using standard radioisotope assay for kinase. Briefly, FLAG-tagged, recombinant full-length human mTor (GenBank accession No. NM_004958) was expressed using baculovirus expression system in Sf21 cells and purified using antibody affinity column. Purified enzyme was incubated with c-terminal fragment of p70S6K as it's substrate in the presence of ATP. p33 ATP tracers were included in the assay to monitor the enzyme activity. Final assay condition was with 50 mM HEPES pH 7.5, 1 mM EGTA, 0.01% Tween 20, 2 mg/ml substrate, 3 mM Manganese Chloride and 70 uM of ATP and was carried out at room temperature for 40 minutes. The reaction was then stopped by the addition of 3% phosphoric acid solution. 10 ul of the reaction was spotted onto a P30 filtermat and washed three times for 5 minutes in 75 mM phosphoric acid and once in methanol prior to drying and scintillation counting. Different concentrations of compounds were added to reaction to assess the activity of compounds to inhibit mTor kinase. IC50 was calculated using Prism software with sigmoidal dose-response curve fitting.

T1 sequence (P42336 whole entry): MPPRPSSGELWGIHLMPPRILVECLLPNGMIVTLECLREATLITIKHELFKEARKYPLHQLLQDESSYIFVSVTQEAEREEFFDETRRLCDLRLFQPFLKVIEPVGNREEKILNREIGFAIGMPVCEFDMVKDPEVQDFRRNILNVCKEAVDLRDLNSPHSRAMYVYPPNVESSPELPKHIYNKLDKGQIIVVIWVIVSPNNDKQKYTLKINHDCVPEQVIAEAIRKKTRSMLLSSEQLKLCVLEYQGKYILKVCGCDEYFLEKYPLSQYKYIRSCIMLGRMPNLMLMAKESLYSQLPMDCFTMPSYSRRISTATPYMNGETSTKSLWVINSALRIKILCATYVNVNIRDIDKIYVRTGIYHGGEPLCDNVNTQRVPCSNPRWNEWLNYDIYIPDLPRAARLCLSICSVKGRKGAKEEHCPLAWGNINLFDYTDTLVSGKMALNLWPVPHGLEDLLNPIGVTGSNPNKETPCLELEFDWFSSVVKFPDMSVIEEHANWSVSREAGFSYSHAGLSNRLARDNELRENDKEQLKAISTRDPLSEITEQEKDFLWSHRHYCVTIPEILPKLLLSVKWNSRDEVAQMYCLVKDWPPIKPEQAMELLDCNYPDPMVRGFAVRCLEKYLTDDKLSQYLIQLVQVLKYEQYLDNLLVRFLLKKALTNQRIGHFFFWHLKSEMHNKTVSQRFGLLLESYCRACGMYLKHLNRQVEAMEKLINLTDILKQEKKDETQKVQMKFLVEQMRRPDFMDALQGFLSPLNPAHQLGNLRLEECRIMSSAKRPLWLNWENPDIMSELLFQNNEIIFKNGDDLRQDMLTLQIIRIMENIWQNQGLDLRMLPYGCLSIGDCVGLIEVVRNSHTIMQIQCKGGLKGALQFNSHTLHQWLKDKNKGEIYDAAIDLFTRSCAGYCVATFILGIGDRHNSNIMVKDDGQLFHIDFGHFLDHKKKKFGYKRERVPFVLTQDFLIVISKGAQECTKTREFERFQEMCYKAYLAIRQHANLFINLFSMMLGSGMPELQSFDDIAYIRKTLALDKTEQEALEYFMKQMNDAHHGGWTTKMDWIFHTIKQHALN
T1 sequence (P27986 whole entry partner): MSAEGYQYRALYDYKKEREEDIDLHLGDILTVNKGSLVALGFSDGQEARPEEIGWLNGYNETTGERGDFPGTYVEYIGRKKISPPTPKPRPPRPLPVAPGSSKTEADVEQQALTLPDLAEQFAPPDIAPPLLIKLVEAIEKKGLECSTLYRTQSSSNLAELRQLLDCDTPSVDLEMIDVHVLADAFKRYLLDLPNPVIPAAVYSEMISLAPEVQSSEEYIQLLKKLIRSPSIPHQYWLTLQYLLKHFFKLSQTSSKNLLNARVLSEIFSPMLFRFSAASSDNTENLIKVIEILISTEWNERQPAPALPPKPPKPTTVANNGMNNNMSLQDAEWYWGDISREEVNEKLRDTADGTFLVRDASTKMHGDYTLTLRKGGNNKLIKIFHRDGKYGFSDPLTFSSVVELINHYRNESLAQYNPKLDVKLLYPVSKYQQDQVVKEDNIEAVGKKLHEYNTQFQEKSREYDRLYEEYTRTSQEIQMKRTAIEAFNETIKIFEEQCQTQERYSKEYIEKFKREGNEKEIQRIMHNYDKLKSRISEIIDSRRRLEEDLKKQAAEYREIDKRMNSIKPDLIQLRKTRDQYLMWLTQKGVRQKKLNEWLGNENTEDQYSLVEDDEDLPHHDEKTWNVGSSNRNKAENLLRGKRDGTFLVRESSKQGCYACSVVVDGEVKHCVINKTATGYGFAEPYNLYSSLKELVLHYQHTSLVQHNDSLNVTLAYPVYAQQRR

SMILES | IC50 [1] [nM] | IC50 (PI3Kα (p110α/p85α)) [nM] | IC50 [2] [nM] | melting point [°C]
O=C(NO)c1cnc(N2CCC(CNCc3cc4nc(-c5cccc6[nH]ncc56)nc(N5CCOCC5)c4s3)CC2)nc1 [Compound 15, 2-(4-(((2-(1H-indazol-4-yl)-4-morpholinothieno[3,2-d]pyrimidin-6-yl)methylamino)methyl)piperidin-1-yl)-N-hydroxypyrimidine-5-carboxamide] | < 100 | 100 to 1000 | > 10000 | 170 to 172
CN(Cc1cc2nc(-c3cccc4[nH]ncc34)nc(N3CCOCC3)c2s1)CC1CCN(c2ncc(C(=O)NO)cn2)CC1 [Compound 16, 2-(4-((((2-(1H-indazol-4-yl)-4-morpholinothieno[3,2-d]pyrimidin-6-yl)methyl)(methyl)amino)methyl)piperidin-1-yl)-N-hydroxypyrimidine-5-carboxamide] | 100 to 1000 | < 100 | 1000 to 10000 | 174 to 175
O=C(CCCCCNCc1cc2nc(-c3cccc4[nH]ncc34)nc(N3CCOCC3)c2s1)NO [Compound 43, 6-((2-(1H-indazol-4-yl)-4-morpholinothieno[3,2-d]pyrimidin-6-yl)methylamino)-N-hydroxyhexanamide] | < 100 | 1000 to 10000 | 1000 to 10000 | 128 to 130
CC(=O)OCCN(Cc1cc2nc(-c3cccc4[nH]ncc34)nc(N3CCOCC3)c2s1)c1ncc(C(=O)NO)cn1 [Compound 87] | < 100 | < 100 | 1000 to 10000 | –
COC(=O)CN(Cc1cc2nc(-c3cccc4[nH]ncc34)nc(N3CCOCC3)c2s1)c1ncc(C(=O)NO)cn1 [Compound 89] | < 100 | < 100 | 1000 to 10000 | –
N#CCCN(Cc1cc2nc(-c3cccc4[nH]ncc34)nc(N3CCOCC3)c2s1)c1ncc(C(=O)NO)cn1 [Compound 99] | < 100 | < 100 | 100 to 1000 | –
CC(=O)NCc1ccc(-c2nc(N3CCOCC3)c3sc(CN(C)c4ncc(C(=O)NO)cn4)cc3n2)cc1 [Compound 136, 2-(((2-(4-(acetamidomethyl)phenyl)-4-morpholinothieno[3,2-d]pyrimidin-6-yl)methyl)(methyl)amino)-N-hydroxypyrimidine-5-carboxamide] | – | > 10000 | > 10000 | 178 to 180
CN(Cc1cc2nc(-c3cccc(C(N)=O)c3)nc(N3CCOCC3)c2s1)c1ncc(C(=O)NO)cn1 [Compound 142, 2-(((2-(3-carbamoylphenyl)-4-morpholinothieno[3,2-d]pyrimidin-6-yl)methyl)(methyl)amino)-N-hydroxypyrimidine-5-carboxamide] | < 100 | 100 to 1000 | 100 to 1000 | –
CN(Cc1cc2nc(-c3cccc4c3CC(=O)N4)nc(N3CCOCC3)c2s1)c1ncc(C(=O)NO)cn1 [Compound 178] | < 100 | > 10000 | > 10000 | –
CN(Cc1cc2nc(-c3cccc4c3CNC4=O)nc(N3CCOCC3)c2s1)c1ncc(C(=O)NO)cn1 [Compound 181] | < 100 | 1000 to 10000 | > 10000 | –
CN(Cc1cc2nc(-c3ccc4c(c3)NC(=O)CO4)nc(N3CCOCC3)c2s1)c1ncc(C(=O)NO)cn1 [Compound 183] | < 100 | > 10000 | > 10000 | –
CN(Cc1cc2nc(-c3c[nH]c4ccccc34)nc(N3CCOCC3)c2s1)c1ncc(C(=O)NO)cn1 [Compound 184] | < 100 | 1000 to 10000 | 100 to 1000 | –
COc1ccc(-c2nc(N3CCOCC3)c3sc(CN(CCO)c4ncc(C(=O)NO)cn4)cc3n2)cn1 [Compound 265] | < 100 | < 100 | > 10000 | –
Nc1ccc(-c2nc(N3CCOCC3)c3sc(CN(CCO)c4ncc(C(=O)NO)cn4)cc3n2)cc1 [Compound 274] | < 100 | < 100 | 100 to 1000 | –
CN(Cc1cc2nc(-c3ccc(N)cc3F)nc(N3CCOCC3)c2s1)c1ncc(C(=O)NO)cn1 [Compound 283, 2-{[2-(4-Amino-2-fluoro-phenyl)-4-morpholin-4-yl-thieno[3,2-d]pyrimidin-6-ylmethyl]-methyl-amino}-pyrimidine-5-carboxylic acid hydroxyamide] | < 100 | 100 to 1000 | – | 195 to 197
CN(Cc1cc2nc(-c3cccc(SCCO)c3)nc(N3CCOCC3)c2s1)c1ncc(C(=O)NO)cn1 [Compound 290, N-Hydroxy-2-(((2-(3-(2-hydroxyethylthio)phenyl)-4-morpholinothieno[3,2-d]pyrimidin-6-yl)methyl)(methyl)amino)pyrimidine-5-carboxamide] | < 100 | 100 to 1000 | – | 188 to 192
CN(Cc1cc2nc(-c3ccc([N+](=O)[O-])c(O)c3)nc(N3CCOCC3)c2s1)c1ncc(C(=O)NO)cn1 [Compound 293, N-Hydroxy-2-(((2-(3-hydroxy-4-nitrophenyl)-4-morpholinothieno[3,2-d]pyrimidin-6-yl)methyl)(methyl)amino)pyrimidine-5-carboxamide] | < 100 | < 100 | > 10000 | –
CC(O)c1ccc(F)c(-c2nc(N3CCOCC3)c3sc(CN(C)c4ncc(C(=O)NO)cn4)cc3n2)c1 (stereo not drawn) [Compound 295, 2-(((2-(2-Fluoro-5-(1-hydroxyethyl)phenyl)-4-morpholinothieno[3,2-d]pyrimidin-6-yl)methyl)(methyl)amino)-N-hydroxypyrimidine-5-carboxamide] | < 100 | 100 to 1000 | – | 230 to 235
CC(=O)c1ccc(F)c(-c2nc(N3CCOCC3)c3sc(CN(C)c4ncc(C(=O)NO)cn4)cc3n2)c1 [Compound 301] | < 100 | 1000 to 10000 | > 10000 | –
Nc1ccc(-c2nc(N3CCOCC3)c3sc(C(=O)NCC4CCN(c5ncc(C(=O)NO)cn5)CC4)cc3n2)cc1 [Compound 307, 2-(4-Aminophenyl)-N-((1-(5-(hydroxycarbamoyl)pyrimidin-2-yl)piperidin-4-yl)methyl)-4-morpholinothieno[3,2-d]pyrimidine-6-carboxamide] | < 100 | 100 to 1000 | – | 232 to 238
CNc1ccc(-c2nc(N3CCOCC3)c3sc(S(=O)(=O)NCC4CCN(c5ncc(C(=O)NO)cn5)CC4)cc3n2)cn1 [Compound 310, N-Hydroxy-2-(4-((2-(6-(methylamino)pyridin-3-yl)-4-morpholinothieno[3,2-d]pyrimidine-6-sulfonamido)methyl)piperidin-1-yl)pyrimidine-5-carboxamide] | < 100 | < 100 | – | 190 to 197
Cc1ncc(-c2nc(N3CCOCC3)c3sc(CN(C)c4ncc(C(=O)NO)cn4)cc3n2)s1 [Compound 311] | < 100 | 100 to 1000 | > 10000 | –
Cn1cc(-c2nc(N3CCOCC3)c3sc(CN(CCO)c4ncc(C(=O)NO)cn4)cc3n2)cn1 [Compound 313] | < 100 | 100 to 1000 | > 10000 | –
CN(Cc1cc2nc(-c3cccc4[nH]c(=O)[nH]c34)nc(N3CCOCC3)c2s1)c1ncc(C(=O)NO)cn1 [Compound 314] | < 100 | 100 to 1000 | > 10000 | –
CS(=O)(=O)N1CCN(Cc2cc3nc(-c4ccc(OCCCCC(=O)NO)cc4)nc(N4CCOCC4)c3s2)CC1 [Compound 319, N-Hydroxy-5-(4-(6-((4-(methylsulfonyl)piperazin-1-yl)methyl)-4-morpholinothieno[3,2-d]pyrimidin-2-yl)phenoxy)pentanamide] | 100 to 1000 | 100 to 1000 | – | 140 to 144
CS(=O)(=O)N1CCN(Cc2cc3nc(-c4ccc(OCCCCCC(=O)NO)cc4)nc(N4CCOCC4)c3s2)CC1 [Compound 320, N-Hydroxy-6-(4-(6-((4-(methylsulfonyl)piperazin-1-yl)methyl)-4-morpholinothieno[3,2-d]pyrimidin-2-yl)phenoxy)hexanamide] | 100 to 1000 | 100 to 1000 | – | 140 to 142
CS(=O)(=O)N1CCN(Cc2cc3nc(-c4ccc(OCCCCCCC(=O)NO)cc4)nc(N4CCOCC4)c3s2)CC1 [Compound 321, N-Hydroxy-7-(4-(6-((4-(methylsulfonyl)piperazin-1-yl)methyl)-4-morpholinothieno[3,2-d]pyrimidin-2-yl)phenoxy)heptanamide] | 100 to 1000 | 100 to 1000 | – | 143 to 145

— US20130102595A1 (Curis, Inc., priority 2011, published 2013)
